Assay results: patent US7226892B2, “Herbicidal composition and use” (Durga Technologies ApS, priority 2003, dated 2007)

What was measured:
[1] = respiratory tract/lungs, eyes, skin; cited from earlier work
[2] = tested on: mixed vegetation of grasses and weeds; experiment: Spraying of glycine solution onto mixed vegetation; assay type: in vivo; settings: glycine alone, summary statement
Excerpt: A common squirt bottle delivering a fine spray was used for spraying the weeds.
A solution of 90 g of glycine+15 g of the surfactant “Witconol® SN 90” in 1 L of water was sprayed onto a mixed vegetation of grasses and weeds until the spray liquid dripped from the leaves, corresponding to 0.1 L/m^2.

O=C(O)CC(O)(CC(=O)O)C(=O)O [citric acid, Citric Acid Monohydrate, reference compound]
risk identification / classification as irritant [1]: Irritates respiratory tract/lungs, irritates eyes, skin irritating

NCC(=O)O [glycine, 2-aminoethanoic acid]
risk identification / classification as irritant [1]: not classified as an irritant | herbicidal activity of glycine per se [2]: no noticeable herbicidal activity
